Data as given in PubChem BioAssay AID2060498 (Molecular Pharmacology Branch, DTP, NCI, 2025).

Tested on: 171881-019-R-J1-PDC tumor spheroids, viability
Test: Anticancer human tumor 171881-019-R-J1-PDC patient-derived invasive breast carcinoma cell line growth inhibition [GQUAD]
Conditions: spheroids with HUVEC and MSC; for IC50: curve of first compound; for viability, T/C: stronger effect = lower value
In short: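 Tumor cells were grown as complex spheroids with HUVEC endothelial cells and mesenchymal stem cells as stroma. G-quadruplex stabilizers were combined with targeted agents over half-log dilutions from near the clinical Cmax, or from 10 microM.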

[1] = second compound 0.0316 µM, first compound 0.0316 µM
[2] = second compound 0.0316 µM, first compound 0.316 µM
[3] = second compound 0.1 µM, first compound 0.0316 µM
[4] = second compound 0.1 µM, first compound 0.316 µM
[5] = second compound 0.316 µM, first compound 0.0316 µM
[6] = second compound 0.316 µM, first compound 0.316 µM
[7] = second compound 1 µM, first compound 0.0316 µM
[8] = second compound 1 µM, first compound 0.316 µM
[9] = second compound 3.16 µM, first compound 0.0316 µM
[10] = second compound 3.16 µM, first compound 0.316 µM
[11] = second compound 10 µM, first compound 0.0316 µM
[12] = second compound 10 µM, first compound 0.316 µM
[13] = second compound 0.0316 µM, first compound 0.1 µM
[14] = second compound 0.0316 µM, first compound 1 µM
[15] = second compound 0.0316 µM, first compound 3.16 µM
[16] = second compound 0.0316 µM, first compound 10 µM
[17] = second compound 0.1 µM, first compound 0.1 µM
[18] = second compound 0.1 µM, first compound 1 µM
[19] = second compound 0.1 µM, first compound 3.16 µM
[20] = second compound 0.1 µM, first compound 10 µM
[21] = second compound 0.316 µM, first compound 0.1 µM
[22] = second compound 0.316 µM, first compound 1 µM
[23] = second compound 0.316 µM, first compound 3.16 µM
[24] = second compound 0.316 µM, first compound 10 µM
[25] = second compound 1 µM, first compound 0.1 µM
[26] = second compound 1 µM, first compound 1 µM
[27] = second compound 1 µM, first compound 3.16 µM
[28] = second compound 1 µM, first compound 10 µM
[29] = second compound 3.16 µM, first compound 0.1 µM
[30] = second compound 3.16 µM, first compound 1 µM
[31] = second compound 3.16 µM, first compound 3.16 µM
[32] = second compound 3.16 µM, first compound 10 µM
[33] = second compound 10 µM, first compound 0.1 µM
[34] = second compound 10 µM, first compound 1 µM
[35] = second compound 10 µM, first compound 3.16 µM
[36] = second compound 10 µM, first compound 10 µM
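Further: spheroids exposed to compounds for 7 days.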
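Wherever viability, T/C is given: 100% = DMSO vehicle control viability.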

Which IC50 (second compound 0.0316 µM) does the source give for `Cn1ncnc1[C@H]1c2n[nH]c(=O)c3cc(F)cc(c23)N[C@@H]1c1ccc(F)cc1` + Cc1[nH]c2ccc(F)cc2c1-c1nc2c3cccnc3c3ncccc3c2[nH]1 here?
Its IC50 is > 316 nM.

And the IC50 (second compound 0.1 µM)?
Its IC50 is > 316 nM.

And the IC50 (second compound 0.316 µM)?
Its IC50 is > 316 nM.

What about the IC50 (second compound 1 µM) of the same compound?
The IC50 was > 316 nM.

And the IC50 (second compound 3.16 µM)?
Its IC50 is < 0.999 nM.

What about the IC50 (second compound 10 µM) of the same compound?
Its IC50 is < 0.999 nM.

And the viability, T/C (second compound 0.0316 µM, first compound 0.000999 µM)?
Its viability, T/C is 97.1%.

And the viability, T/C (second compound 0.0316 µM, first compound 0.00316 µM)?
Its viability, T/C is 94.5%.

And the viability, T/C (second compound 0.0316 µM, first compound 0.00999 µM)?
The viability, T/C was 93.2%.

What about the viability, T/C [1] of the same compound?
Its viability, T/C is 101%.

What about the viability, T/C (second compound 0.0316 µM, first compound 0.0999 µM) of the same compound?
The viability, T/C was 94.6%.

And the viability, T/C [2]?
Its viability, T/C is 84.5%.

What about the viability, T/C (second compound 0.1 µM, first compound 0.000999 µM) of the same compound?
Its viability, T/C is 88.5%.

And the viability, T/C (second compound 0.1 µM, first compound 0.00316 µM)?
Its viability, T/C is 106%.

And the viability, T/C (second compound 0.1 µM, first compound 0.00999 µM)?
Its viability, T/C is 90%.

And the viability, T/C [3]?
Its viability, T/C is 101%.

And the viability, T/C (second compound 0.1 µM, first compound 0.0999 µM)?
The viability, T/C was 99.1%.

What about the viability, T/C [4] of the same compound?
The viability, T/C was 87.6%.

What about the viability, T/C (second compound 0.316 µM, first compound 0.000999 µM) of the same compound?
Its viability, T/C is 102%.

What about the viability, T/C (second compound 0.316 µM, first compound 0.00316 µM) of the same compound?
Its viability, T/C is 107%.

What about the viability, T/C (second compound 0.316 µM, first compound 0.00999 µM) of the same compound?
Its viability, T/C is 91.9%.

And the viability, T/C [5]?
The viability, T/C was 84.8%.

And the viability, T/C (second compound 0.316 µM, first compound 0.0999 µM)?
The viability, T/C was 102%.

And the viability, T/C [6]?
The viability, T/C was 82.4%.

And the viability, T/C (second compound 1 µM, first compound 0.000999 µM)?
Its viability, T/C is 79%.

What about the viability, T/C (second compound 1 µM, first compound 0.00316 µM) of the same compound?
The viability, T/C was 76.8%.

What about the viability, T/C (second compound 1 µM, first compound 0.00999 µM) of the same compound?
The viability, T/C was 81%.

What about the viability, T/C [7] of the same compound?
The viability, T/C was 75%.

And the viability, T/C (second compound 1 µM, first compound 0.0999 µM)?
The viability, T/C was 89.1%.

And the viability, T/C [8]?
The viability, T/C was 78.6%.

And the viability, T/C (second compound 3.16 µM, first compound 0.000999 µM)?
The viability, T/C was 20.5%.

And the viability, T/C (second compound 3.16 µM, first compound 0.00316 µM)?
The viability, T/C was 18.4%.

And the viability, T/C (second compound 3.16 µM, first compound 0.00999 µM)?
The viability, T/C was 23.2%.

And the viability, T/C [9]?
Its viability, T/C is 21.1%.

What about the viability, T/C (second compound 3.16 µM, first compound 0.0999 µM) of the same compound?
The viability, T/C was 19.7%.

What about the viability, T/C [10] of the same compound?
Its viability, T/C is 17.1%.

And the viability, T/C (second compound 10 µM, first compound 0.000999 µM)?
Its viability, T/C is 48.6%.

What about the viability, T/C (second compound 10 µM, first compound 0.00316 µM) of the same compound?
The viability, T/C was 52.7%.

And the viability, T/C (second compound 10 µM, first compound 0.00999 µM)?
Its viability, T/C is 55.2%.

What about the viability, T/C [11] of the same compound?
The viability, T/C was 47.3%.

What about the viability, T/C (second compound 10 µM, first compound 0.0999 µM) of the same compound?
Its viability, T/C is 56.7%.

What about the viability, T/C [12] of the same compound?
Its viability, T/C is 58.1%.

What does the source list for `C#Cc1c(F)ccc2cc(O)cc(-c3ncc4c(N5CC6CCC(C5)N6)nc(OCC56CCCN5CC(F)C6)nc4c3F)c12` (stereo unspecified) + CN(C)c1ccc(Nc2c3ccc(NC(=O)CCN4CCCC4)cc3nc3cc(NC(=O)CCN4CCCC4)ccc23)cc1?
IC50 (second compound 0.0316 µM): 509 nM; IC50 (second compound 0.1 µM): 362 nM; IC50 (second compound 0.316 µM): < 31.6 nM; IC50 (second compound 1 µM): < 31.6 nM; IC50 (second compound 3.16 µM): < 31.6 nM; IC50 (second compound 10 µM): < 31.6 nM; viability, T/C [1]: 91.8%; viability, T/C [13]: 77.2%; viability, T/C [2]: 53.9%; viability, T/C [14]: 41.5%; viability, T/C [15]: 25.2%; viability, T/C [16]: 11.2%; viability, T/C [3]: 87.8%; viability, T/C [17]: 68.1%; viability, T/C [4]: 52%; viability, T/C [18]: 35%; viability, T/C [19]: 23.7%; viability, T/C [20]: 8.76%; viability, T/C [5]: 43.1%; viability, T/C [21]: 33.4%; viability, T/C [6]: 24.5%; viability, T/C [22]: 15.3%; viability, T/C [23]: 11.9%; viability, T/C [24]: 0.81%; viability, T/C [7]: 3.77%; viability, T/C [25]: 3.04%; viability, T/C [8]: 3.15%; viability, T/C [26]: 1.14%; viability, T/C [27]: 1%; viability, T/C [28]: 0.07%; viability, T/C [9]: 0.2%; viability, T/C [29]: 0.29%; viability, T/C [10]: 0.47%; viability, T/C [30]: 0.22%; viability, T/C [31]: 0.17%; viability, T/C [32]: 0.1%; viability, T/C [11]: 0.11%; viability, T/C [33]: 0.1%; viability, T/C [12]: 0.13%; viability, T/C [34]: 0.26%; viability, T/C [35]: 0.26%; viability, T/C [36]: 0.13%

How did the IC50 (second compound 0.0316 µM) turn out when `COc1ncnc(C2CC2)c1-c1ncc2cnn(Cc3ccc(-c4nc(C(F)(F)F)cn4C(C)C)cc3)c2n1` + Cc1[nH]c2ccc(F)cc2c1-c1nc2c3cccnc3c3ncccc3c2[nH]1 was run?
The IC50 was > 10000 nM.

And the IC50 (second compound 0.1 µM)?
The IC50 was > 10000 nM.

And the IC50 (second compound 0.316 µM)?
The IC50 was > 10000 nM.

And the IC50 (second compound 1 µM)?
Its IC50 is > 10000 nM.

What about the IC50 (second compound 3.16 µM) of the same compound?
The IC50 was < 31.6 nM.

What about the IC50 (second compound 10 µM) of the same compound?
The IC50 was < 31.6 nM.

And the viability, T/C [1]?
Its viability, T/C is 88.4%.

And the viability, T/C [13]?
The viability, T/C was 93.6%.

What about the viability, T/C [2] of the same compound?
Its viability, T/C is 97.8%.

And the viability, T/C [14]?
Its viability, T/C is 104%.

And the viability, T/C [15]?
Its viability, T/C is 90.5%.

What about the viability, T/C [16] of the same compound?
The viability, T/C was 88.4%.

And the viability, T/C [3]?
Its viability, T/C is 97.5%.

And the viability, T/C [17]?
The viability, T/C was 87.9%.

And the viability, T/C [4]?
The viability, T/C was 99.1%.

And the viability, T/C [18]?
The viability, T/C was 98.8%.

What about the viability, T/C [19] of the same compound?
The viability, T/C was 83.1%.

What about the viability, T/C [20] of the same compound?
The viability, T/C was 81.8%.

And the viability, T/C [5]?
The viability, T/C was 71.4%.

What about the viability, T/C [21] of the same compound?
The viability, T/C was 74.2%.

What about the viability, T/C [6] of the same compound?
The viability, T/C was 75.4%.

What about the viability, T/C [22] of the same compound?
Its viability, T/C is 72%.

What about the viability, T/C [23] of the same compound?
The viability, T/C was 72.3%.

And the viability, T/C [24]?
The viability, T/C was 62.7%.

What about the viability, T/C [7] of the same compound?
The viability, T/C was 65.1%.

And the viability, T/C [25]?
Its viability, T/C is 54.2%.

What about the viability, T/C [8] of the same compound?
The viability, T/C was 59.4%.

And the viability, T/C [26]?
Its viability, T/C is 60.3%.

And the viability, T/C [27]?
The viability, T/C was 71.1%.

And the viability, T/C [28]?
The viability, T/C was 60.3%.

What about the viability, T/C [9] of the same compound?
The viability, T/C was 8.81%.

And the viability, T/C [29]?
Its viability, T/C is 4.91%.

And the viability, T/C [10]?
Its viability, T/C is 7.33%.

And the viability, T/C [30]?
Its viability, T/C is 8.01%.

What about the viability, T/C [31] of the same compound?
The viability, T/C was 11.8%.

And the viability, T/C [32]?
The viability, T/C was 6.52%.

And the viability, T/C [11]?
Its viability, T/C is 40.8%.

And the viability, T/C [33]?
Its viability, T/C is 38.5%.

And the viability, T/C [12]?
The viability, T/C was 30.7%.

And the viability, T/C [34]?
Its viability, T/C is 50%.

What about the viability, T/C [35] of the same compound?
The viability, T/C was 42.6%.

And the viability, T/C [36]?
The viability, T/C was 35.2%.
